Key:
CYP2C9 = CYP2C9 (Homo sapiens (Human), UniProt P11712); experiment: Human liver microsomal CYP inhibition assay; assay type: in vitro ADME; conditions: human liver microsomes, 5-in-1 probe substrate
Experimental: (§1) The purpose of the study was to evaluate the inhibition of the test sample on human liver microsomal cytochrome P450 isozymes (CYP1A2, CYP2C9, CYP2C19, CYP2D6, and CYP3A4) by using the CYP isozyme 5-in-1 probe substrate.
(§2) Mixed human liver microsomes (HLM) were purchased from Corning Inc. (Steuben, N.Y., USA) or XenoTech, LLC. (Lenexa, Kans., USA) or other suppliers, and stored at the temperature below −70° C. prior to use.
(§3) A series of diluted test sample working solution were added to an incubation system containing cofactors of human liver microsomes, a probe substrate and a circulation system, and the control without a test substance but containing a solvent was used as enzyme activity control (100%). The concentration of the metabolite produced by the probe sample in the sample was determined by liquid chromatography-tandem mass spectrometry (LC-MS/MS). Non-linear regression analysis was performed on the concentration of the average percent activity of the test sample by using SigmaPlot (V.11). The IC50 value was calculated by a three-parameter or four-parameter recursive logarithmic equation.

CYP1A2 = CYP1A2 (Homo sapiens (Human), UniProt P05177); experiment: Human liver microsomal CYP inhibition assay; assay type: in vitro ADME; conditions: human liver microsomes, 5-in-1 probe substrate
CYP1A2, sequence (P05177 whole entry): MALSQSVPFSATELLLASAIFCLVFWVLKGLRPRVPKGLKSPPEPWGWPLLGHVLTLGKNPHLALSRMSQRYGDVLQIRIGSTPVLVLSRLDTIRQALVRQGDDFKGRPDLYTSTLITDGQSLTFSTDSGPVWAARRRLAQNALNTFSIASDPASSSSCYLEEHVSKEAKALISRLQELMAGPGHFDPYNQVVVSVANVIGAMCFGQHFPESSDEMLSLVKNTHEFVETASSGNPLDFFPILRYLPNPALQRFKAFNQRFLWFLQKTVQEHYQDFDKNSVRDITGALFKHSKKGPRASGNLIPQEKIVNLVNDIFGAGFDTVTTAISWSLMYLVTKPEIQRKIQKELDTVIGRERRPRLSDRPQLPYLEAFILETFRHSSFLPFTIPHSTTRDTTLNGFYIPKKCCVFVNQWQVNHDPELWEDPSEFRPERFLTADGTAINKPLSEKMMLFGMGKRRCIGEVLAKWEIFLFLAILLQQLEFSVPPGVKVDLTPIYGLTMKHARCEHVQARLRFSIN
Experimental: as §1, §2, §3

CYP3A4 = CYP3A4 (Homo sapiens (Human), UniProt P08684); experiment: Human liver microsomal CYP inhibition assay; assay type: in vitro ADME; conditions: human liver microsomes, 5-in-1 probe substrate
CYP3A4, sequence (P08684 whole entry): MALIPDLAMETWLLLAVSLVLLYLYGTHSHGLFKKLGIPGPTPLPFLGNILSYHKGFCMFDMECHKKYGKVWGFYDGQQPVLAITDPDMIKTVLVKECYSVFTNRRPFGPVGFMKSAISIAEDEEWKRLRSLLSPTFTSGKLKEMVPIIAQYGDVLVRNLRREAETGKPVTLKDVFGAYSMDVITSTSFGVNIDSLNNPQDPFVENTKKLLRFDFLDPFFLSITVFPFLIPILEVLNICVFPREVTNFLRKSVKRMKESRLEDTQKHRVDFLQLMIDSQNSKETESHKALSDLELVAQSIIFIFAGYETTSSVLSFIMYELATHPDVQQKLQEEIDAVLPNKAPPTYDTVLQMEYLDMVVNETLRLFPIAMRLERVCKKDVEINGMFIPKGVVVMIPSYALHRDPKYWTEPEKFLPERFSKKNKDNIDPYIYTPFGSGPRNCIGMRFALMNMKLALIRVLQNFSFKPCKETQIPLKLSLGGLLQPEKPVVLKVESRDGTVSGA
Experimental: as §1, §2, §3

CYP2C19 = CYP2C19 (Homo sapiens (Human), UniProt P33261); experiment: Human liver microsomal CYP inhibition assay; assay type: in vitro ADME; conditions: human liver microsomes, 5-in-1 probe substrate
CYP2C19, sequence (P33261 whole entry): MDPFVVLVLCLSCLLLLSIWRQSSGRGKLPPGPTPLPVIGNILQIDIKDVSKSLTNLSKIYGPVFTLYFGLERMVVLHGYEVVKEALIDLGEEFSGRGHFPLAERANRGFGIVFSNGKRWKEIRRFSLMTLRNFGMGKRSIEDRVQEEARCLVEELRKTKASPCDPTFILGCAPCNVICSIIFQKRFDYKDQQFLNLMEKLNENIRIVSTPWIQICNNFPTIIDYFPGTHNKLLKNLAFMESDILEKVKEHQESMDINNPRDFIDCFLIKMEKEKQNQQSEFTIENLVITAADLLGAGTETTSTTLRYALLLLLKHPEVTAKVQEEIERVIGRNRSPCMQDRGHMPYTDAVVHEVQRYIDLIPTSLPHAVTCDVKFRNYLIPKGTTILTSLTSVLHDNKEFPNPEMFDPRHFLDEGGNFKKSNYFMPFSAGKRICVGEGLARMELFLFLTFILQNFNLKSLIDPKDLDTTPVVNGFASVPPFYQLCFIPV
Experimental: as §1, §2, §3

CYP2D6 = CYP2D6 (Homo sapiens (Human), UniProt P10635); experiment: Human liver microsomal CYP inhibition assay; assay type: in vitro ADME; conditions: human liver microsomes, 5-in-1 probe substrate
CYP2D6, sequence (P10635 whole entry): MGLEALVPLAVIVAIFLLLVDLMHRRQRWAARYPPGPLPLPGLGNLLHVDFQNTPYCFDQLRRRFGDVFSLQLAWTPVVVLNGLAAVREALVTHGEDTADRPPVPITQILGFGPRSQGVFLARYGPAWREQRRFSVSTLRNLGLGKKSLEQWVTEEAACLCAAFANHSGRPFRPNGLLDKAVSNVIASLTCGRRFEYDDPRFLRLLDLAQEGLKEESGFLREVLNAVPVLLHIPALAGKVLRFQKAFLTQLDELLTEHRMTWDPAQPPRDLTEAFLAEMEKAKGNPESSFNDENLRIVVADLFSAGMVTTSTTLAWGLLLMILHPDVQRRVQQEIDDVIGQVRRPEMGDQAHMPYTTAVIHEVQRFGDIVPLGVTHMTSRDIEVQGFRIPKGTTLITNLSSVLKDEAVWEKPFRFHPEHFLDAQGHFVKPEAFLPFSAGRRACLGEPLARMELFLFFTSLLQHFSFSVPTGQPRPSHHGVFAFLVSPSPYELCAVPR
Experimental: as §1, §2, §3

[1] = system: CCl4-induced chronic liver fibrosis; experiment: Oral CCl4-induced chronic liver fibrosis male C57BL/6 model; assay type: in vivo, C57BL/6 mice; conditions: oral daily for 28 days, in words
Experimental: The therapeutic effect of compounds on an oral CCl4-induced chronic liver fibrosis male C57BL/6 model was tested. Male C57BL/6 mice, 7-8 weeks old; Experimental method: Male C57BL/6 mice were orally administered from the day CCl4 was put for modeling, and administered daily. Continuous administration was conducted for 28 days. The animals were fasted for at least 6 hours on the next day after the last administration. Animal weight was measured during euthanasia and all animals were euthanized under the guidance of the KCl Animal Euthanasia SOP. Non-anticoagulant venous blood of mice was collected from the ocular venous plexus. The whole blood was allowed to stand at room temperature for 30 minutes, and centrifuged at 5000 rpm for 5 minutes, and the serum was separated and placed in a 1.5 ml EP tube and stored at -80° C. After the whole body of the animal was perfused with hypothermic saline, the liver was taken and subjected to tissue gross image acquisition. The left lobe of the liver was divided into 4 equal parts and put into 4 tissue cryotubes for liquid nitrogen freezing, and then transferred to -80 OC for storage. The rest of the liver tissue was fixed in 10% neutral formalin fixative. […] HE staining was subjected to double-blind score by two pathological readers, and the area of hepatic fibrosis was analyzed for sirius-red stained sections by digital pathology.

[2] = Compound pharmacokinetic evaluation in SD rats; assay type: in vivo; conditions: male, Sprague-Dawley, rat, plasma
Experimental: Experimental purpose: compound pharmacokinetics were tested in SD rats
Sprague Dawley rats (male, 200-300 g, 7-9 weeks old, Shanghai Slack)
Experimental procedure: the pharmacological characteristics of the compound after intravenous and oral administration were tested in rodents by standard protocol, candidate compounds in the experiment was prepared into clear solutions to be administered to the rats in a single intravenous injection and orally. The intravenous and oral solvents were a certain proportion of an aqueous hydroxypropyl 3-cyclodextrin solution or a physiological saline solution. Whole blood samples within 24 hours were collected, and centrifuged at 3000 g for 15 minutes, the supernatant was separated to obtain plasma samples, 4 times volume of acetonitrile solution containing internal standard was added to precipitate protein, centrifuging was conducted to take the supernatant, equal volume of water was added and centrifuging was conducted to the supernatant to be sampled. The LC-MS/MS analysis method was used to quantitatively analyze the plasma concentration, and the pharmacokinetic parameters such as peak concentration, peak time, clearance rate, half-life, area under the drug concentration-time curve, and bioavailability were calculated.

VAP-1/SSAO = VAP-1/SSAO (Homo sapiens (Human), UniProt Q16853); experiment: Human VAP-1 enzyme activity assay (Amplex Red Monoamine Oxidase kit); assay type: biochemical; conditions: 10 nM VAP-1 enzyme, 30 min preincubation, benzylamine substrate; read-out: Human Recombinant VAP-1/SSAO Enzyme Inhibitory Activity IC50
VAP-1/SSAO, sequence (Q16853 whole entry): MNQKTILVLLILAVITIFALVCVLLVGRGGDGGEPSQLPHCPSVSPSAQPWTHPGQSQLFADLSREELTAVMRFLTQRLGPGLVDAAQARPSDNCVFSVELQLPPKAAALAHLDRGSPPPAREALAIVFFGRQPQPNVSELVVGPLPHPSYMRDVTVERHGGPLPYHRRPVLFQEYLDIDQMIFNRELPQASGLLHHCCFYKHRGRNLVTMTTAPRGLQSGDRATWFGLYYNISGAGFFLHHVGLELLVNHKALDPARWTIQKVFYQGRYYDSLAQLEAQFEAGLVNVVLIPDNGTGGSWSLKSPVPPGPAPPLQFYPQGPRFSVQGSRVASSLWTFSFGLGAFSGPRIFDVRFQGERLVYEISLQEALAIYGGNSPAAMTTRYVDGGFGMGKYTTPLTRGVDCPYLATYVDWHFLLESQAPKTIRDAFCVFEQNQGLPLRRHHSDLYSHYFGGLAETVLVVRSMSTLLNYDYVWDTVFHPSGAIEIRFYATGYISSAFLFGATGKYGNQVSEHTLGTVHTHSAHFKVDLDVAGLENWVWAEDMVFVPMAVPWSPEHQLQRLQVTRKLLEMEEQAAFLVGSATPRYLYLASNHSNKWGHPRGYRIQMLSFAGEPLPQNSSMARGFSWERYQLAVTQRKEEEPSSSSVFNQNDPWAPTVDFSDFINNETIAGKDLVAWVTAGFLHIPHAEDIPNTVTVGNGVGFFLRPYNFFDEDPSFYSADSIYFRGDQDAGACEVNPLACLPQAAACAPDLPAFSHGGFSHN
Experimental: Human VAP-1 enzyme activity assay:
The inhibition of the sample on VAP-enzyme activity was measured by using an Amplex® Red Monoamine Oxidase kit (Invitrogen #A12214). 100 nL of the gradiently-diluted to-be-tested compound (solvent DMSO) was added to a 384-well plate. 25 μL of 10 nM VAP-1 enzyme solution was added and incubated for 30 minutes at room temperature. A substrate mixture of VAP-1 enzyme (200 μM Amplex Red, 1 U/mL HRP, 1 mM Benzylamine) was added and incubated for 60 minutes at room temperature. After the incubation, the fluorescent signal was read with a microplate reader Envision (excitation light wavelength 530-560 nm, emission light wavelength 590 nm). The fluorescence signal value after the background signal was removed was analyzed by Prism software, and the IC50 of the sample against the VAP-1 enzyme was calculated.

[3] = Distribution of compounds in liver and blood of CD-1 mice; assay type: in vivo; conditions: single oral dose
Experimental: Experimental purpose: distribution of compounds in liver and blood of CD-1 mice was tested;
CD-1 Mice (male, 25-35 g, 6-9 weeks old, Shanghai Slack);
Experimental procedure: after oral administration, the drug was distributed in the liver and blood of rodents, candidate compounds in the experiment were formulated into a clear solution to be administered to mice in a single oral dose. The oral solvent was a certain proportion of an aqueous solution of hydroxypropyl P-cyclodextrin or a physiological saline solution. The concentration of the drug in the liver and blood was measured at 1 hour and 4 hours after administration.

CYP2C9, sequence (P11712 whole entry): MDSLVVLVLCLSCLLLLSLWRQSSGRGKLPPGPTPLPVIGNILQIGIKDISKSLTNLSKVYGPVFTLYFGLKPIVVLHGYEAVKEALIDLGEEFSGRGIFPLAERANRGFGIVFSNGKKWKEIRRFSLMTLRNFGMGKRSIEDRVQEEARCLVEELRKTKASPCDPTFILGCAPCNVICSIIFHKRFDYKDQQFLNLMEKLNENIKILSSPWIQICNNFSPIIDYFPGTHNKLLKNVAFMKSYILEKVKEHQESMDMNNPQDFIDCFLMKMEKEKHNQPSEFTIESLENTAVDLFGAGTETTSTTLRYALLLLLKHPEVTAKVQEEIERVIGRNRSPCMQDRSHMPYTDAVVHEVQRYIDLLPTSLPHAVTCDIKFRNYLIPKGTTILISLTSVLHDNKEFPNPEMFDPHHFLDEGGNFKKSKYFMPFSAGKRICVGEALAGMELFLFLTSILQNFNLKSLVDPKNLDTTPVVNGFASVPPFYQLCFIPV

IC50 (CYP2C9): 24 µM
IC50 (CYP1A2): 5 µM
IC50 (CYP3A4): > 50 µM
IC50 (CYP2C19): 17 µM
IC50 (CYP2D6): 36 µM
Tmax ([2]; oral, read-out: Peak Time Tmax): 1.5 h
bioavailability ([2]; po, read-out: Bioavailability F): 99%
AUC ([2]; read-out: Concentration Integral AUC): 9.31 µM·h
Cmax ([2]; single intravenous injection and oral, read-out: Peak Concentration Cmax): 2340 nM
IC50 (VAP-1/SSAO): 0.0002 µM
Liver Concentration ([3]; @1.0 hour): 13520
Liver Concentration/Plasma Concentration ratio ([3]; @1.0 hour): 15
Plasma Concentration ([3]; @1.0 hour): 934
Liver Concentration ([3]; @4.0 hour): 3364
Liver Concentration/Plasma Concentration ratio ([3]; @4.0 hour): 17
Plasma Concentration ([3]; @4.0 hour): 190
SMILES: Cl.Cn1nc(-c2ccc(OC/C(=C/F)CN)cc2)nc1C(F)F [WX126]
Effect on liver fibrosis (Sirius-Red staining) [1]: obvious improvement effect
Effect on liver injury (HE staining score) [1]: obvious improvement effect

Reference: US11001563B2, “SSAO inhibitor” (SHANDONG DANHONG PHARMACEUTICAL CO., LTD., priority 2017, dated 2021)
